The assay relates to CDF1 male mice. The experiment in a line: Spontaneous activity for 60 minutes after 3 hours forced walking exercise (treadmill), infrared sensor. The class given is in vivo. To be noted: oral, Bonito Extract A 1 g/kg in terms of a free amino acid amount, known components of Bonito Extract A, vs Control group. As to the method:
Three groups (A, B and C groups) of 5-week-old CDF1 male mice, each group consisting of 8 mice (n=8 for each group), were put in a treadmill and subjected to forced walking exercise for 3 hours. Then, the mice of the respective groups were orally administrated, using a gastric sonde, with (1) Bonito Extract A, (2) Bonito Extract B, and (3) Bonito Extract C in an amount of 1 g/kg in terms of free amino acid amount in the bonito extracts. Subsequently, their spontaneous activity for 60 minutes was measured using a spontaneous activity measuring apparatus provided with an infrared sensor, and comparison with the control group (Control group which was administrated with only deionized distilled water in the same manner as the samples) was carried out. The respective samples and the distilled water were administered in amounts of 0.5 mL. The result is represented in FIG. 1.
In the Figure, *, ** and *** represent significant differences from the control group, * being at p<0.05, ** being at p<0.01, and *** being at p<0.001. “Total counts” refers to the number of times of exercising that were measured with the infrared sensor for 60 minutes.
Three groups of 5-week-old CDF1 male mice, each group consisting of 8 mice (n=8 for each group), were put in a treadmill and subjected to forced walking exercise for 3 hours. […]

Turning to `[Cl-].[Na+]` [NaCl], the “recovery of spontaneous activity (Test Example 6, FIGS. 8, 9 and 10)” value is “recovery of spontaneous activity was not observed”.
The value for inosine 1-phosphate [nucleic acid] was “recovery of spontaneous activity was not observed”.

Source of the values: patent US20090104278A1, “FOOD COMPOSITION FOR RECOVERY FROM FATIGUE” (Ajinomoto Co., Inc., priority 2002, published 2009).
